Data: PMC10535717, “A Novel Antimicrobial Peptide, Dermaseptin-SS1, with Anti-Proliferative Activity, Isolated from the Skin Secretion of Phyllomedusa tarsius” (Molecules, 2023)
Ends that are not written are not given here.

Key:
[1] = Log P of the amino acid as quoted in the discussion; source and method not given; cited from earlier work
Source text: The predicted information from HeliQuest referred to the design of analogues (Figure 2). The first modification step was designed to increase hydrophobic characteristics and decrease helicity. […] The ...

E. coli ATCC BAA 2469 = assay type: cell-based, Escherichia coli; conditions: NDM-1 strain, overnight 37 °C, three independent assays; for MIC: NB, 5 × 10^5 CFU/mL, OD 550 nm; for MBC: agar plate
Source text: (§1) The anti-planktonic microorganism efficacy of the peptides was investigated via minimal bacterial inhibitory concentration (MIC) and minimal bactericidal concentration (MBC) assays. Eight types of microorganisms, including Gram-positive bacteria, Staphylococcus aureus (ATCC CRM 6538), Methicillin-resistant Staphylococcus aureus (NCTC 12493), and Enterococcus faecium (NCTC 12697), Gram-negative bacteria, Escherichia coli (ATCC CRM 8739, ATCC BAA 2340, ATCC 13846, ATCC BAA 2469, and ATCC BAA 2471), Klebsiella pneumoniae (ATCC 43816), Pseudomonas aeruginosa (ATCC CRM 9027) and Acinetobacter baumannii (ATCC BAA 747) and a yeast, Candida albicans (ATCC CRM 10231) were utilized to test the antimicrobial activity of peptides.
(§2) For the MIC assay, microorganisms were inoculated with peptides in a 96-well plate. Nutrient broth (NB) was applied for MRSA, E. coli, K. pneumoniae, and P. aeruginosa, tryptic soy broth (TSB) was applied for S. aureus, E. faecium, and A. baumannii, and yeast extract peptone dextrose broth (YPD-B) was used for C. albicans. The microorganisms were cultured (bacteria: 37 °C; yeast: 26 °C) overnight at 120 rpm and subcultured to achieve the logarithmic growth stage (5 × 10^5 CFU/mL), as confirmed by viable cell counts. After that, 99 µL of the subculture and 1 µL of the peptide were added to the 96-well plate. The final concentration of peptides ranged from 128 to 1 µmol/L (µM) using a 2-fold dilution. In addition, four other groups were established simultaneously at the commencement of the test: a growth control group, a vehicle control group (Dimethyl Sulphoxide, DMSO), a positive control group utilizing Norfloxacin at a concentration of 2 mg/mL for bacteria, and Amphotericin B. at a concentration of 1 mg/mL for yeast, and a blank control group (sterile NB/TSB/YPD-B). The MIC values were measured after overnight incubation at 37/26 °C. The optical density (OD) values were analysed at 550 nm using a Synergy HT plate reader (BioTek, Washington, USA), and were calculated using the following equation:(1) Cell Viability %=[(As−A0)/(Ag−A0)]×100% where As is the absorbance value of the sample group, A0 is the average of the absorbance values of the blank control, and Ag is the average of the absorbance values of the growth control. For the MBC assay, 10 µL of the inhibited cultures on the 96-well plate were transferred onto a corresponding medium agar plate and incubated overnight at 37/26 °C to measure MBC values. The results were obtained from three independent assays.

E. coli NCTC 13846 = assay type: cell-based, Escherichia coli
Source text: as §1, §2

E. coli ATCC CRM 8739 = assay type: cell-based, Escherichia coli
Source text: as §1, §2

E. coli ATCC BAA 2340 = assay type: cell-based, Escherichia coli; conditions: KPC strain, overnight 37 °C, three independent assays; for MIC: NB, 5 × 10^5 CFU/mL, OD 550 nm; for MBC: agar plate
Source text: as §1, §2

E. coli ATCC BAA 2471 = assay type: cell-based, Escherichia coli; conditions: NDM-1 strain, overnight 37 °C, three independent assays; for MIC: NB, 5 × 10^5 CFU/mL, OD 550 nm; for MBC: agar plate
Source text: as §1, §2

E. faecalis NCTC 12697 = assay type: cell-based
MRSA NCTC 12493 = assay type: cell-based, Methicillin-resistant Staphylococcus aureus
Source text: as §1, §2

K. pneumoniae ATCC 43816 = assay type: cell-based, Klebsiella pneumoniae
Source text: as §1, §2

[2] = tested on: C. albicans ATCC CRM 10231; assay type: cell-based, Candida albicans; conditions: for MBC / MIC: ATCC CRM 10231
Source text: as §1, §2

[3] = tested on: A. baumannii ATCC BAA 747; assay type: cell-based, Acinetobacter baumannii
Source text: as §1, §2

[4] = tested on: P. aeruginosa ATCC CRM 9027; assay type: cell-based, Pseudomonas aeruginosa
Source text: as §1, §2

S. aureus ATCC CRM 6538 = assay type: cell-based, Staphylococcus aureus
Source text: as §1, §2

horse erythrocytes = assay: Haemolysis activity; assay type: cell-based; conditions: concentration causing 50% haemolysis; 4% (v/v) horse red blood cells in PBS, peptide 128 to 1 µM, 37 °C 2 h, OD 570 nm, 1% Triton X-100 positive control, three separate assays
Protocol: To start, fresh defibrinated horse blood (TCS Biosciences Ltd., Buckingham, UK) was washed with PBS solution to obtain a clear supernatant. Then, a 4% (v/v) suspension of red blood cells was made in PBS. After this, 100 µL of the peptide solutions were incubated with 100 µL of the suspension of red blood cells in 2 mL centrifuge tubes at 37 °C for 2 h. The ultimate concentration of peptides ranged from 128 to 1 µM obtained by a 2-fold dilution. Also, two other groups were set simultaneously, including a positive control group of 1% Triton X-100 and a blank control group of phosphate-buffered saline (PBS). After incubation and centrifugation at 900× g for 10 min, a volume of 100 µL of the resulting supernatant from each specimen was carefully transferred to individual wells of the 96-well plate. Subsequently, the OD values were analysed using a Synergy HT plate reader (BioTek, USA) at a wavelength of 570 nm using the following equation:(2) Haemolysis Activity %=[(As−A0)/(Ap−A0)]×100% where As is the absorbance value of the supernatant of the peptide group, A0 is the average absorbance value of the blank control, and Ap is the average absorbance value of the positive control. The data were obtained from three separate assays.

Gram-positive bacteria = assay: Geometric mean of MICs and therapeutic index, Gram +; assay type: cell-based; conditions: geometric mean of MICs of Table 3; 256.00 μM used where no activity at 128.00 μM
Source text: as §1
(§3) For the MIC assay, microorganisms were inoculated with peptides in a 96-well plate. […] The MIC values were measured after overnight incubation at 37/26 °C. The optical density (OD) values were analysed at 550 nm using a Synergy HT plate reader (BioTek, Washington, USA), and were calculated using the following equation:(1) Cell Viability %=[(As−A0)/(Ag−A0)]×100% where As is the absorbance value of the sample group, A0 is the average of the absorbance values of the blank control, and Ag is the average of the absorbance values of the growth control. […]

Gram-negative bacteria = assay: Geometric mean of MICs and therapeutic index, Gram −; assay type: cell-based; conditions: geometric mean of MICs of Table 3; 256.00 μM used where no activity at 128.00 μM
Source text: as §1, §3

Molecule | Log P [1] | MBC (E. coli ATCC CRM 8739) [µM] | MIC (E. coli ATCC CRM 8739) [µM] | MBC (E. faecalis NCTC 12697) [µM] | MIC (E. faecalis NCTC 12697) [µM] | MBC (MRSA NCTC 12493) [µM] | MIC (MRSA NCTC 12493) [µM] | MBC (K. pneumoniae ATCC 43816) [µM] | MIC (K. pneumoniae ATCC 43816) [µM] | MBC [2] [µM] | MIC [2] [µM] | MBC [3] [µM] | MIC [3] [µM] | MBC [4] [µM] | MIC [4] [µM] | MBC (S. aureus ATCC CRM 6538) [µM] | MIC (S. aureus ATCC CRM 6538) [µM] | HC50 (horse erythrocytes) | also measured
C[C@H](N)C(=O)O [Alanine] | 3.54 | – | – | – | – | – | – | – | – | – | – | – | – | – | – | – | – | – | –
NC(=O)CC[C@H](N)C(=O)O [Glutamine] | 3.19 | – | – | – | – | – | – | – | – | – | – | – | – | – | – | – | – | – | –
NCC(=O)O [Glycine] | 3.20 | – | – | – | – | – | – | – | – | – | – | – | – | – | – | – | – | – | –
CC(C)[C@H](N)C(=O)O [Valine] | 4.42 | – | – | – | – | – | – | – | – | – | – | – | – | – | – | – | – | – | –
N[C@@H](CO)C(=O)O [serine] | 2.66 | – | – | – | – | – | – | – | – | – | – | – | – | – | – | – | – | – | –
ALWKKILKNAGKAVLNEINQIVQ-NH2 [Peptide 14V5K] | – | 2 | 2 | >128 | >128 | 4 | 4 | 2 | 2 | 8 | 8 | 8 | 8 | 8 | 8 | 4 | 4 | 256.00 | MIC (E. coli ATCC BAA 2469): 1 µM; MBC (E. coli ATCC BAA 2469): 2 µM; MBC (E. coli NCTC 13846): 4 µM; MIC (E. coli NCTC 13846): 4 µM; MIC (E. coli ATCC BAA 2340): 2 µM; MBC (E. coli ATCC BAA 2340): 2 µM; MIC (E. coli ATCC BAA 2471): 1 µM; MBC (E. coli ATCC BAA 2471): 2 µM; time to eradicate bacteria: < 10 min
ALWKSILKNAGKAALNEINQIVQ-NH2 [SS1] | – | 4 | 2 | >128 | >128 | >128 | >128 | 16 | 16 | >128 | >128 | 16 | 16 | 32 | 32 | 8 | 8 | 256.00 µM | MIC (E. coli ATCC BAA 2469): 4 µM; MBC (E. coli ATCC BAA 2469): 4 µM; MBC (E. coli NCTC 13846): 8 µM; MIC (E. coli NCTC 13846): 8 µM; MIC (E. coli ATCC BAA 2340): 4 µM; MBC (E. coli ATCC BAA 2340): 4 µM; MIC (E. coli ATCC BAA 2471): 8 µM; MBC (E. coli ATCC BAA 2471): 8 µM
ALWKSILKNAGKAGLNEINQIVQ-NH2 [Peptide 14G] | – | 16 | 16 | >128 | >128 | >128 | >128 | >128 | >128 | >128 | >128 | >128 | >128 | > 128 | 32 | >128 | >128 | 256.00 | –
ALWKSILKNAGKALNEINQIVQ-NH2 [Peptide L14] | – | 4 | 4 | >128 | >128 | 32 | 32 | 16 | 16 | >128 | >128 | > 128 | 32 | > 128 | 16 | >128 | >128 | 256.00 | –
ALWKSILKNAGKAVLNEINQIV-NH2 [Peptide 14VL23] | – | 16 | 8 | >128 | >128 | >128 | >128 | 4 | 4 | >128 | >128 | >128 | >128 | >128 | >128 | >128 | >128 | 256.00 | –
ALWKSILKNAGKAVLNEINQIVQ-NH2 [Peptide 14V] | – | 2 | 2 | >128 | >128 | 8 | 8 | 8 | 8 | >128 | >128 | 4 | 4 | > 128 | 16 | 4 | 4 | 256.00 | –
ALWKSILKNVGKVLNEINQIVQ-NH2 [Peptide L2V] | – | >128 | >128 | >128 | >128 | 4 | 4 | > 128 | 8 | >128 | >128 | 4 | 4 | >128 | >128 | >128 | >128 | 256.00 | GM Yeast ([2]; geometric mean of MICs of Table 3, 256.00 μM used where no activity at 128.00 μM): 256.00 µM; GM Gram + (Gram-positive bacteria): 64.00 µM; GM Gram − (Gram-negative bacteria): 38.05 µM
